Read-outs that look alike come from different tables or passages of the source.
What was measured:
Pim-1 = Pim-1 (Homo sapiens (Human), UniProt P11309); experiment: Pim-Mn enzyme assay (HTRF, 384-well), Pim-1; type: biochemical; conditions: Pim-1 enzyme 5 pM, ATP 1.5 μM, BAD (S112) 0.5 μM, HTRF, 22-point curve; read-out: Pim-1-Mn IC50 IP
Pim-2 = Pim-2 (Homo sapiens (Human), UniProt Q9P1W9); experiment: Pim-Mn enzyme assay (HTRF, 384-well), Pim-2; type: biochemical; conditions: read-out: Pim-2-Mn IC50 IP
[1] = Pim-2 enzyme 0.5 pM, ATP 1.5 μM, BAD (S112) 0.5 μM, HTRF, 22-point curve

Chain of Pim-1 (P11309 whole entry): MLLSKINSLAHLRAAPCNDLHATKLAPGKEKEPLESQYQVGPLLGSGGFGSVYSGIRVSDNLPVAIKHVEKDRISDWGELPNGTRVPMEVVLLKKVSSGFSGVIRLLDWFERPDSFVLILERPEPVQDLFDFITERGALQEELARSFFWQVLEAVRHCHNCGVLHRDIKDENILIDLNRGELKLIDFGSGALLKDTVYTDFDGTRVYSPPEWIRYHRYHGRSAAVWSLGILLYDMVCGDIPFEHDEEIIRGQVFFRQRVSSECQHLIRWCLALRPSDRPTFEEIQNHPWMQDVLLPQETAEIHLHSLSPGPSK
Chain of Pim-2 (Q9P1W9 whole entry): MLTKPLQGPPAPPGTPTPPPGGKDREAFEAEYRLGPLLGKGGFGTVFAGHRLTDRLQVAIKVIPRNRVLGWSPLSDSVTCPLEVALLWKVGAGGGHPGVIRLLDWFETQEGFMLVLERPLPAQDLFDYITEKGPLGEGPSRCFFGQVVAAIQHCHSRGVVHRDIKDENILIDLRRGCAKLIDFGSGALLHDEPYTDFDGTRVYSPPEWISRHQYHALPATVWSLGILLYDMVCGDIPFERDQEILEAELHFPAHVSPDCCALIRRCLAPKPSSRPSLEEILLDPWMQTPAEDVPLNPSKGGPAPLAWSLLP

Compound | IC50 (Pim-1) [nM] | IC50 (Pim-2; [1]) [nM] | IC50 (Pim-2) [nM]
Cc1nc2cccc(-c3cc4c([nH]3)CCNC4=O)c2nc1OC1CCC1 [Example 151, 2-(3-cyclobutoxy-2-methylquinoxalin-5-yl)-6,7-dihydro-1H-pyrrolo[3,2-c]pyridin-4(5H)-one] | 18.2 | 12.3 | 
Cc1nc2cccc(-c3cc4c([nH]3)CCNC4=O)c2nc1N[C@@H](C)C(F)(F)F [Example 255, (S)-2-(2-methyl-3-((1,1,1-trifluoropropan-2-yl)amino)quinoxalin-5-yl)-6,7-dihydro-1H-pyrrolo[3,2-c]pyridin-4(5H)-one] | 28.3 | 27.2 | 
CC(C)(C)Nc1nc2c(-c3cc4c([nH]3)CCNC4=O)cccc2nc1-c1ccccc1 [Example 438, 2-(3-(tert-Butylamino)-2-phenylquinoxalin-5-yl)-6,7-dihydro-1H-pyrrolo[3,2-c]pyridin-4(5H)-one] | 3.1 | 12 | 
Cc1nc2cccc(-c3cc4c([nH]3)CCNC4=O)c2nc1N[C@H]1CCCN(C(=O)OC(C)(C)C)C1 [Example 51, tert-butyl (3S)-3-((3-methyl-8-(4-oxo-4,5,6,7-tetrahydro-1H-pyrrolo[3,2-c]pyridin-2-yl)-2-quinoxalinyl)amino)-1-piperidinecarboxylate] | 191 | 220 | 
Cc1nc2cccc(-c3cc4c([nH]3)CCNC4=O)c2nc1NC1CN(C)C1 [Example 243, 2-(2-methyl-3-((1-methyl-3-azetidinyl)amino)-5-quinoxalinyl)-1,5,6,7-tetrahydro-4H-pyrrolo[3,2-c]pyridin-4-one] | 853 | 1050 | 
Cc1nc2cccc(-c3cc4c([nH]3)CCNC4=O)c2nc1N[C@H]1C[C@@H](NCCF)C1 [Example 477, 2-(3-(((1s,3s)-3-((2-fluoroethyl)amino)cyclobutyl)amino)-2-methylquinoxalin-5-yl)-6,7-dihydro-1H-pyrrolo[3,2-c]pyridin-4(5H)-one] | 1 | 1 | 
CC(=O)N1CCC[C@H](Nc2nc3c(-c4cc5c([nH]4)CCNC5=O)cccc3nc2C)C1 [Example 242, 2-(3-(((3S)-1-acetyl-3-piperidinyl)amino)-2-methyl-5-quinoxalinyl)-1,5,6,7-tetrahydro-4H-pyrrolo[3,2-c]pyridin-4-one] | 129 | 137 | 
Cc1nc2cccc(-c3cc4c([nH]3)C(C)CNC4=O)c2nc1NC1CC1 (single isomer, unassigned) [Example 161, 2-(3-(cyclopropylamino)-2-methylquinoxalin-5-yl)-7-methyl-6,7-dihydro-1H-pyrrolo[3,2-c]pyridin-4(5H)-one] | 0.8 | 0.7 | 
Cc1nc2cccc(-c3cc4c([nH]3)C(C)CNC4=O)c2nc1NC1CC1 (single isomer, unassigned) [Example 160, 2-(3-(cyclopropylamino)-2-methylquinoxalin-5-yl)-7-methyl-6,7-dihydro-1H-pyrrolo[3,2-c]pyridin-4(5H)-one] | 1 | 0.5 | 
Cc1nc2cccc(-c3cc4c([nH]3)[C@@H](C)NC4=O)c2nc1N[C@H]1CCC[C@@H](N)C1 [Example 483, (6R)-2-(3-(((1S,3R)-3-aminocyclohexyl)amino)-2-methyl-5-quinoxalinyl)-6-methyl-5,6-dihydropyrrolo[3,4-b]pyrrol-4(1H)-one] | 0.0598 | 0.0358 | 
COC(=O)C(C)(C)Nc1nc2c(-c3cc4c([nH]3)CCNC4=O)cccc2nc1C [Example 57, Methyl 2-methyl-N-(3-methyl-8-(4-oxo-4,5,6,7-tetrahydro-1H-pyrrolo[3,2-c]pyridin-2-yl)-2-quinoxalinyl)alaninate] | 24.2 | 54.3 | 
Cc1nc2cccc(-c3cc4n(c3)C(CCO)CNC4=O)c2nc1NC(C)(C)C (racemic) [Example 235, (±)-7-(3-(tert-butylamino)-2-methyl-5-quinoxalinyl)-4-(2-hydroxyethyl)-3,4-dihydropyrrolo[1,2-a]pyrazin-1(2H)-one] | 9.5 | 14.5 | 
C[C@H]1NC(=O)c2cc(-c3cccc4c(=O)n(C5CCC5)c(NC(C)(C)C)nc34)[nH]c21 [Example 507, (R)-2-(tert-Butylamino)-3-cyclobutyl-8-(6-methyl-4-oxo-1,4,5,6-tetrahydropyrrolo[3,4-b]pyrrol-2-yl)quinazolin-4(3H)-one] | 0.3 | 0.6 | 
CC(=O)N1CC[C@H](Nc2nc3c(-c4cc5c([nH]4)CCNC5=O)cccc3nc2C)C1 [Example 65, (S)-2-(3-((1-acetylpyrrolidin-3-yl)amino)-2-methylquinoxalin-5-yl)-6,7-dihydro-1H-pyrrolo[3,2-c]pyridin-4(5H)-one] | 57.8 |  | 72.8
CC(C)(C)Nc1nc2c(-c3cc4c([nH]3)CCNC4=O)cccc2nc1C(F)(F)F [Example 224, 2-(3-(tert-butylamino)-2-(trifluoromethyl)quinoxalin-5-yl)-6,7-dihydro-1H-pyrrolo[3,2-c]pyridin-4(5H)-one] | 4.2 | 2.8 | 
CC(=O)N1CCC(Nc2nc3c(-c4cc5c([nH]4)CCNC5=O)cccc3nc2C)CC1 [Example 50, 2-(3-((1-acetyl-4-piperidinyl)amino)-2-methyl-5-quinoxalinyl)-1,5,6,7-tetrahydro-4H-pyrrolo[3,2-c]pyridin-4-one] | 13.7 | 24.4 | 
Cc1nc2cccc(-c3cc4c([nH]3)CCNC4=O)c2nc1NC(C)C(F)(F)F (stereo in doubt) [Example 256, (R)-2-(2-methyl-3-((1,1,1-trifluoropropan-2-yl)amino)quinoxalin-5-yl)-6,7-dihydro-1H-pyrrolo[3,2-c]pyridin-4(5H)-one] | 4.97 | 4.32 | 
Cc1nc2cccc(-c3cc4c(=O)[nH]cnc4[nH]3)c2nc1N [Example 262, 6-(3-amino-2-methylquinoxalin-5-yl)-3H-pyrrolo[2,3-d]pyrimidin-4(7H)-one] | 18.9 | 21 | 
CSc1nc2c(-c3cc4c([nH]3)CCNC4=O)cccc2c(=O)n1C [Example 265, 3-methyl-2-(methylthio)-8-(4-oxo-4,5,6,7-tetrahydro-1H-pyrrolo[3,2-c]pyridin-2-yl)quinazolin-4(3H)-one] | 25.2 | 11.9 | 

The remaining compounds from weak to strong by IC50 (Pim-1), led by results:

IC50 (Pim-1) [nM] | IC50 (Pim-2; [1]) [nM] | Compound | IC50 (Pim-2) [nM]
838 | 706 | CC#CCC1CNC(=O)c2cc(-c3cccc4nc(C)c(F)nc34)[nH]c21 (racemic) [Example 280, rac-7-(2-butyn-1-yl)-2-(3-fluoro-2-methyl-5-quinoxalinyl)-1,5,6,7-tetrahydro-4H-pyrrolo[3,2-c]pyridin-4-one] | 
149 | 403 | Cc1nc2cccc(-c3cc4c([nH]3)CCNC4=O)c2nc1N[C@@H]1CCCN(C(=O)OC(C)(C)C)C1 [Example 52, tert-butyl (3R)-3-((3-methyl-8-(4-oxo-4,5,6,7-tetrahydro-1H-pyrrolo[3,2-c]pyridin-2-yl)-2-quinoxalinyl)amino)-1-piperidinecarboxylate] | 
47.2 | 144 | Cc1nc2cccc(-c3cc4c([nH]3)CCNC4=O)c2nc1N[C@H]1CCN(C(=O)OC(C)(C)C)C1 [Example 49, (S)-tert-butyl-3-((3-methyl-8-(4-oxo-4,5,6,7-tetrahydro-1H-pyrrolo[3,2-c]pyridin-2-yl)quinoxalin-2-yl)amino)pyrrolidine-1-carboxylate] | 
26.2 | 116 | Cc1nc2cccc(-c3cc4c([nH]3)CCNC4=O)c2nc1N[C@@H]1CCN(C(=O)OC(C)(C)C)C1 [Example 48, tert-butyl (3R)-3-((3-methyl-8-(4-oxo-4,5,6,7-tetrahydro-1H-pyrrolo[3,2-c]pyridin-2-yl)-2-quinoxalinyl)amino)-1-pyrrolidinecarboxylate] | 
13.2 | 34.9 | Cc1nc2cccc(-c3cc4c([nH]3)CCNC4=O)c2nc1NC1CCN(C(=O)OC(C)(C)C)CC1 [Example 47, tert-butyl 4-((3-methyl-8-(4-oxo-4,5,6,7-tetrahydro-1H-pyrrolo[3,2-c]pyridin-2-yl)-2-quinoxalinyl)amino)-1-piperidinecarboxylate] | 
5.85 | 3.96 | Cc1nc2cccc(-c3cc4c([nH]3)C[C@H](C)NC4=O)c2nc1NC(C)(C)C [Example 288, (6S)-2-(3-(tert-butylamino)-2-methyl-5-quinoxalinyl)-6-methyl-1,5,6,7-tetrahydro-4H-pyrrolo[3,2-c]pyridin-4-one] | 
4.1 | 8.2 | Cc1nc2cccc(-c3cc4c([nH]3)CCNC4=O)c2nc1N[C@H]1C[C@H](NC(=O)OC(C)(C)C)C1 [Example 436, tert-butyl ((1r,3s)-3-((3-methyl-8-(4-oxo-4,5,6,7-tetrahydro-1H-pyrrolo[3,2-c]pyridin-2-yl)quinoxalin-2-yl)amino)cyclobutyl)carbamate] | 
0.9 | 0.3 | C[C@H]1NC(=O)c2cc(-c3cccc4c(=O)n(CCCS(C)(=O)=O)c(NC(C)(C)C)nc34)[nH]c21 [Example 508, (R)-2-(tert-butylamino)-8-(6-methyl-4-oxo-1,4,5,6-tetrahydropyrrolo[3,4-b]pyrrol-2-yl)-3-(3-(methylsulfonyl)propyl)quinazolin-4(3H)-one] | 
0.694 | 0.338 | Cc1nc2cccc(-c3cc4c([nH]3)CCNC4=O)c2nc1NC1(C(F)(F)F)CC1 [Example 258, 2-(2-methyl-3-((1-(trifluoromethyl)cyclopropyl)amino)quinoxalin-5-yl)-6,7-dihydro-1H-pyrrolo[3,2-c]pyridin-4(5H)-one] | 
0.013 | 0.0378 | CCn1c(NC2(C)CC2)nc2c(-c3cc4c([nH]3)[C@@H](C)NC4=O)c(F)ccc2c1=O [Example 513, (R)-3-Ethyl-7-fluoro-8-(6-methyl-4-oxo-1,4,5,6-tetrahydropyrrolo[3,4-b]pyrrol-2-yl)-2-((1-methylcyclopropyl)amino)quinazolin-4(3H)-one] | 
